Several values for one entry are separate records, joined by “and”; a condition that tells them apart may be missing. Equal entries are not always repeated.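 Each compound was tested at five concentrations against cells in 96-well plates for 48 hours. GI50: concentration for 50% inhibition of growth. At the TGI there is no net growth.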
Columns and labels:
Test in all cases: NCI anticancer screen, dose series, 48 h
[1] = tested on: CAKI-1 renal
[2] = tested on: CCRF-CEM leukemia
[3] = tested on: HS 578T breast
[4] = tested on: MALME-3M melanoma
[5] = tested on: NCI-H522 lung
[6] = tested on: NCI/ADR-RES ovarian
[7] = tested on: PC-3 prostate
[8] = tested on: SN12C renal
[9] = tested on: SNB-75 CNS
[10] = tested on: SR leukemia
[11] = tested on: COLO 205 colon

CC(=O)OC1COC(n2c(N)c(C#N)c(C)c(C#N)c2=S)C(OC(C)=O)C1OC(C)=O (stereo unspecified)
TGI [1]: > 100 µM | GI50 [2]: > 100 µM and 32 µM | TGI [2]: > 100 µM | GI50 [3]: > 100 µM and 38.3 µM | TGI [3]: > 100 µM | TGI [4]: > 100 µM | TGI [5]: > 100 µM | TGI [6]: > 100 µM | TGI [7]: > 100 µM | TGI [8]: > 100 µM | TGI [9]: > 100 µM | TGI [10]: > 100 µM

CCOC(=O)n1cncc1CC(NC(=O)Cc1c(C(=O)C=C(C)C)[nH]c2ccccc12)C(=O)OC (stereo unspecified)
TGI [1]: 34.8 µM | TGI [2]: 50.9 µM | TGI [11]: 41 µM | TGI [3]: 65.9 µM | TGI [4]: 32.8 µM | TGI [5]: 15.2 µM | TGI [6]: > 100 µM | TGI [7]: 33.6 µM | TGI [8]: 39.5 µM | TGI [9]: 49.7 µM | TGI [10]: 16.1 µM

CC(C)/C=N\n1c(N)c(C#N)c(C#N)c1C(C)C
TGI [1]: > 100 µM | TGI [2]: > 100 µM | TGI [11]: 45.7 µM | TGI [3]: 95.3 µM | TGI [4]: 98.1 µM | TGI [5]: > 100 µM | TGI [6]: 66.3 µM | TGI [7]: 47.2 µM | TGI [8]: > 100 µM | TGI [9]: 40.4 µM | TGI [10]: > 100 µM

Cn1c2nc3ccccc3c-2cc2ccccc21
GI50 [1]: 2.6 µM and 5.52 µM | TGI [1]: 8.7 µM and 37.1 µM | TGI [2]: > 43.5 µM and 25 µM | TGI [11]: > 35.9 µM and 17.2 µM | GI50 [3]: 4.54 µM and 17.7 µM | TGI [3]: 16.4 µM and 61.3 µM | GI50 [4]: 2.86 µM and 18.5 µM | TGI [4]: 12.8 µM and > 100 µM | GI50 [5]: 2.07 µM and 6.03 µM | TGI [5]: 10.3 µM and 23.7 µM | GI50 [6]: 2.76 µM and 12.1 µM | TGI [6]: 20.2 µM and > 100 µM | TGI [7]: > 45.9 µM and 23.6 µM | GI50 [8]: 3.14 µM and 6.46 µM | TGI [8]: 36.3 µM and 34.9 µM | GI50 [9]: 3.22 µM and 13.4 µM | TGI [9]: 12.7 µM and 39.1 µM | TGI [10]: 7.25 µM and 10.7 µM

N=C1C(=N)c2ccccc2-c2ccccc21
TGI [1]: 3.08 µM | TGI [2]: > 20 µM | TGI [11]: 3.24 µM | TGI [3]: > 26.1 µM | TGI [4]: 2.57 µM | TGI [5]: 3.99 µM | TGI [6]: 5 µM | TGI [7]: 2.88 µM | TGI [8]: 2.49 µM | TGI [9]: 3.25 µM | TGI [10]: 6.46 µM

O=C1CCCc2cc3c(cc21)CCC3C(=O)O (stereo unspecified)
TGI [1]: > 100 µM | TGI [2]: > 100 µM | TGI [11]: > 100 µM | TGI [3]: > 100 µM | TGI [4]: > 100 µM | TGI [5]: > 100 µM | TGI [6]: > 100 µM | TGI [7]: > 100 µM | TGI [8]: > 100 µM | TGI [9]: > 100 µM | TGI [10]: > 100 µM

Cc1ccc(S(=O)(=O)NNC(=S)Nc2cccc3ccccc23)cc1
TGI [1]: > 100 µM | TGI [2]: > 100 µM | TGI [11]: > 100 µM | TGI [3]: > 100 µM | TGI [4]: > 100 µM | TGI [5]: 46.6 µM | TGI [6]: > 100 µM | TGI [7]: > 100 µM | TGI [8]: > 100 µM | TGI [9]: 77.5 µM | TGI [10]: > 100 µM

CNC(=O)c1n[nH][nH]c1=O
TGI [1]: > 100 µM | TGI [2]: > 100 µM | TGI [11]: > 100 µM | TGI [3]: > 100 µM | TGI [4]: > 100 µM | TGI [5]: > 100 µM | TGI [6]: > 100 µM | TGI [7]: > 100 µM | TGI [8]: > 100 µM | TGI [9]: > 100 µM | TGI [10]: > 100 µM

From PubChem BioAssay (NCI)
